Earlier results on three molecules are cited in patent publication US20140037729A1, “COMBINATION OF AN OPIOID AGONIST AND AN OPIOID ANTAGONIST IN THE TREATMENT OF PARKINSON'S DISEASE” (Euro-Celtique, S.A., priority 2010, published 2014).

The conditions of data set [1]: reported.
The next data set has as its system parkinsonian patients. Particulars: at higher doses; Berg et al. 1999.
The subject of another data set is parkinsonian monkeys. Particulars: in the long term; Samadi et al. 2005.

As for `C=CCN1CC[C@]23c4c5ccc(O)c4O[C@H]2C(=O)CC[C@@]3(O)[C@H]1C5` [Naloxone, naloxone], the oral bioavailability in data set [1] is reported as at most 2%. As for `CN1CC[C@]23c4c5ccc(O)c4O[C@H]2[C@@H](O)C=C[C@H]3[C@H]1C5` [morphine], the akinesia result in the data set on parkinsonian patients is “increase in akinesia”. `O=C1CC[C@@]2(O)[C@H]3Cc4ccc(O)c5c4[C@@]2(CCN3CC2CC2)[C@H]1O5` [naltrexone]: the dyskinesias entry in the data set on parkinsonian monkeys is given as “increases dyskinesias”.
